Data on nine compounds can be found in paper PMC11210122, “Synthesis, biological evaluation, and molecular docking of novel 1,3,4-substituted-thiadiazole derivatives as potential anticancer agent” (BMC Chemistry, 2024).

As a reminder, the GI50 is the concentration that inhibits growth by half. For orientation: inhibition means the relative decrease from the control value, in per cent. High values mean a response far below the control, low ones a response near the control.

The first experiment relates to human breast carcinoma cell line (MCF-7). As to the kind of experiment: MTT anti-proliferative assay, MCF-7. In kind it is cell-based. The note with it: MCF7, MCF-7, MTT, mean ± SD of three independent experiments, read-out: Growth inhibition, GI50. As to the method:
(§1) Methods for in vitro anti-proliferative assay [Cell lines]: In the current investigation, hepatocellular carcinoma cell lines (HEPG-2), human lung carcinoma (A549) and human breast carcinoma cell line (MCF-7) and pseudo-normal human embryonic liver cellline (L02) were used for antiproliferative activity, the cell lines were obtained from NCL, Pune. The growth medium used is the DMEM (Dulbecco's modified Eagle's growth medium) having 10% FBS (fetal bovine serum), 10 µg/ml of insulin (Sigma) and 1% penicillin/streptomycin. The used reagents and chemicals were purchased from Sigma or Invitrogen. 100 µl of each compound was added to cells with density of 1.2 – 1.8 × 10,000 cells/well containing 100 µl growth medium in a 96-well plate for 24 h previous to performing the MTT assay.
(§2) MTT assay: MTT (3-[4,5-dimethylthiazole-2-yl]-2,5-diphenyltetrazolium bromide) was used to determine the anti-proliferative activity. Cells were incubated in a moist environment for 24 hours at 37℃. The cells were then treated with various concentrations of the studied substances (0.01, 0.1, 1.0, 10, 50, 100 µM). The media was removed, and the cells were treated for 2 hours with a 5% MTT ([…]) solution/well, allowing the dye to metabolize to colored-insoluble formazan crystals. The remaining solution was discarded and acidified isopropanol was then added for around 30 minutes to dissolve the formazan crystals, which were encased in aluminum foil at room temperature. The absorbance of each well was measured at 450 nm using an Elisa reader. The cell viability was expressed as a percentage of control, and the GI50 was calculated using Graph Pad Prism program (Graph Pad software Inc, CA).
(Tetrazolium assays rely on reduction of a dye to a coloured formazan, in cell work by metabolically active cells.)
On to `O=C(CCl)Nc1nc(-c2ccccc2)cs1` [4a], for which the concentration for 50% growth inhibition (GI50) came to 23.8 ± 0.24 µM.

Take `O=C(CCl)Nc1nc(-c2ccc(Cl)cc2)cs1` [4c]: the concentration for 50% growth inhibition (GI50) was 2.63 ± 0.14 µM.

Turning to `COc1ccc(-c2csc(NC(=O)CCl)n2)cc1` [4d], the GI50 amounted to 26.5 ± 0.32 µM.

In the case of `Cc1ccc(-c2csc(NC(=O)CCl)n2)cc1` [4e], the 50% growth inhibitory concentration (GI50) came to 31.8 ± 0.46 µM.

On to `O=C(CCl)Nc1nc(-c2ccc([N+](=O)[O-])cc2)cs1` [4f], for which the GI50 was 29.4 ± 0.32 µM.

As for `O=C(CCl)Nc1nc(-c2ccc(F)cc2)cs1` [4g], the GI50 turned out to be 36.7 ± 0.41 µM.

In the case of `O=C(CCl)Nc1nc(-c2cccc([N+](=O)[O-])c2)cs1` [4h], the GI50 worked out at 38.15 ± 0.27 µM.

For `O=C(CCl)Nc1nc(-c2cccc(Br)c2)cs1` [4i], the GI50 turned out to be 33.74 ± 0.32 µM.

Take `COc1cccc(-c2csc(NC(=O)CCl)n2)c1` [4j]: the concentration for 50% growth inhibition (GI50) was 1.82 ± 0.21 µM.

Another experiment concerns pseudo-normal human embryonic liver cell line (L02). Put plainly: MTT assay, pseudo-normal L02 cells. The note with it: L02, 100 µM, mean ± SD of three independent experiments. In kind it is cell-based. As to the method:
as §1, §2
As to `O=C(CCl)Nc1nc(-c2ccccc2)cs1` [4a], testing at 100 µM gave an inhibition of 21.6 ± 0.43%.

Take `O=C(CCl)Nc1nc(-c2ccc(Cl)cc2)cs1` [4c]: the inhibition at 100 µM came to 18.4 ± 0.48%.

Take `COc1ccc(-c2csc(NC(=O)CCl)n2)cc1` [4d]: testing at 100 µM gave an inhibition of 12.8 ± 0.22%.

`Cc1ccc(-c2csc(NC(=O)CCl)n2)cc1` [4e] returned an inhibition at 100 µM of 15.9 ± 0.24%.

Regarding `O=C(CCl)Nc1nc(-c2ccc([N+](=O)[O-])cc2)cs1` [4f], the inhibition at 100 µM was found to be 28.16 ± 0.27%.

`O=C(CCl)Nc1nc(-c2ccc(F)cc2)cs1` [4g] registered an inhibition at 100 µM of 16.3 ± 0.21%.

`O=C(CCl)Nc1nc(-c2cccc([N+](=O)[O-])c2)cs1` [4h] had an inhibition at 100 µM of 18.4 ± 0.34%.

For `O=C(CCl)Nc1nc(-c2cccc(Br)c2)cs1` [4i], the inhibition at 100 µM was 17.6 ± 0.38%.

Take `COc1cccc(-c2csc(NC(=O)CCl)n2)c1` [4j]: the inhibition at 100 µM turned out to be 17.3 ± 0.23%.

Another experiment has as its system breast carcinoma cell line (MCF-7). Put plainly: Annexin V-FITC/PI assay (flow cytometry). In kind it is cell-based, human. Particulars: MCF-7, 5 μM, 24 h. As to the method:
The early stages of apoptosis were monitored by Annexin V-FITC (apoptotic cell marker) and PI (necrotic cell marker) double staining. The staining method was used according to the Annexin FITC/PI staining kit (Invitrogen™, Thermo Fisher Scientific Inc.). Annexin V- FITC/PI assay was performed to inspect the extent of programmed cell death (Fig. 3, apoptosis) by the compounds 4c, 4j and 8f on breast carcinoma cell line (MCF-7). The cells were treated with increasing concentrations (5–10 μM) for 24 h and analyzed by flow cytometry.
Annexin V-FITC/PI Assay: The early stages of apoptosis were monitored by Annexin V-FITC (apoptotic cell marker) and PI (necrotic cell marker) double staining. The staining method was used according to the Annexin FITC/PI staining kit (Invitrogen™, Thermo Fisher Scientific Inc.). Briefly, cells were washed in PBS twice and resuspended in 500 μl of PBS plus Annexin V-FITC and PI. For each sample at least 1×10^4 cells should be analysed using an FACS cytometer.
A general note: In flow cytometry, cells or beads pass a laser one at a time.
Consider `O=C(CCl)Nc1nc(-c2ccc(Cl)cc2)cs1` [4c], for which the Q3 live cells was determined as 62.43%.

As for `COc1cccc(-c2csc(NC(=O)CCl)n2)c1` [4j], the “Q2 late apoptotic cells” value worked out at 34.84% and the Q3 live cells is reported as 42.81%.

Still in this experiment, the particulars now being: MCF-7, 10 μM, 24 h.
Regarding `O=C(CCl)Nc1nc(-c2ccc(Cl)cc2)cs1` [4c], the Q3 live cells amounted to 42.19%.

In the case of `COc1cccc(-c2csc(NC(=O)CCl)n2)c1` [4j], the “Q2 late apoptotic cells” value stood at 40.33% and the Q3 live cells was determined as 32.80%.

Another experiment concerns hepatocellular carcinoma cell lines (HEPG-2). Put plainly: MTT anti-proliferative assay, HepG-2. In kind it is cell-based, human. Particulars: Homo sapiens, HepG2, HepG-2, MTT, mean ± SD of three independent experiments; read-out: Growth inhibition, GI50. As to the method:
as §1, §2
With `O=C(CCl)Nc1nc(-c2ccccc2)cs1` [4a], the 50% growth inhibitory concentration (GI50) is 12.9 ± 0.25 µM.

For `O=C(CCl)Nc1nc(-c2ccc(Cl)cc2)cs1` [4c], the concentration for 50% growth inhibition (GI50) worked out at 3.92 ± 0.17 µM.

`COc1ccc(-c2csc(NC(=O)CCl)n2)cc1` [4d]: the GI50 worked out at 8.37 ± 0.23 µM.

For `Cc1ccc(-c2csc(NC(=O)CCl)n2)cc1` [4e], the GI50 turned out to be 7.28 ± 0.16 µM.

As to `O=C(CCl)Nc1nc(-c2ccc([N+](=O)[O-])cc2)cs1` [4f], the GI50 turned out to be 18.9 ± 0.29 µM.

In the case of `O=C(CCl)Nc1nc(-c2ccc(F)cc2)cs1` [4g], the GI50 was found to be 22.7 ± 0.46 µM.

Regarding `O=C(CCl)Nc1nc(-c2cccc([N+](=O)[O-])c2)cs1` [4h], the GI50 was 25.81 ± 0.23 µM.

Regarding `O=C(CCl)Nc1nc(-c2cccc(Br)c2)cs1` [4i], the GI50 worked out at 16 ± 0.43 µM.

Consider `COc1cccc(-c2csc(NC(=O)CCl)n2)c1` [4j], for which the GI50 amounted to 2.38 ± 0.24 µM.

For a further experiment, the system named is human lung carcinoma cell line (A549). As to the kind of experiment: MTT anti-proliferative assay, A549. In kind it is cell-based. Particulars: Homo sapiens, A549, A549, MTT, mean ± SD of three independent experiments; read-out: Growth inhibition, GI50. As to the method: as §1, §2
Consider `O=C(CCl)Nc1nc(-c2ccccc2)cs1` [4a], for which the concentration for 50% growth inhibition (GI50) was determined as 18.7 ± 0.41 µM.

As for `O=C(CCl)Nc1nc(-c2ccc(Cl)cc2)cs1` [4c], the concentration for 50% growth inhibition (GI50) was found to be 3.86 ± 0.22 µM.

Consider `COc1ccc(-c2csc(NC(=O)CCl)n2)cc1` [4d], for which the GI50 is 15.4 ± 0.23 µM.

With `Cc1ccc(-c2csc(NC(=O)CCl)n2)cc1` [4e], the concentration for 50% growth inhibition (GI50) was 13.7 ± 0.34 µM.

In the case of `O=C(CCl)Nc1nc(-c2ccc([N+](=O)[O-])cc2)cs1` [4f], the GI50 worked out at 19.2 ± 0.32 µM.

Take `O=C(CCl)Nc1nc(-c2ccc(F)cc2)cs1` [4g]: the 50% growth inhibitory concentration (GI50) turned out to be 17.5 ± 0.26 µM.

With `O=C(CCl)Nc1nc(-c2cccc([N+](=O)[O-])c2)cs1` [4h], the GI50 came to 28.6 ± 0.47 µM.

With `O=C(CCl)Nc1nc(-c2cccc(Br)c2)cs1` [4i], the 50% growth inhibitory concentration (GI50) came out at 31.4 ± 0.36 µM.

As to `COc1cccc(-c2csc(NC(=O)CCl)n2)c1` [4j], the 50% growth inhibitory concentration (GI50) amounted to 2.61 ± 0.12 µM.
